Measured values taken from patent US20130337564A1, “Treatment of Pluripotent Cells” (Janssen Biotech, Inc., priority 2012, published 2013).

Legend:
Format in all cases: cell-based
[1] = tested on: Sox17 expression in human embryonic stem cells (H9 line); test: High content screening assay: Sox17 protein expression (differentiation); conditions: for SOX17 Expression, Fold over Wnt 3a/AA control / fold induction at 10 µM: 10 μM test compound with 100 ng/ml activin A on days 1-2, H9, total intensity by IN Cell Analyzer, strong and moderate hits; for SOX-17 Expression Fold over Wnt 3a/AA control: total intensity normalised to Wnt 3a/AA control; for fold induction at 10 µM: Homo sapiens, Embryonic stem cell, read-out: SOX17 Expression, Fold over Wnt 3a/AA control
Procedure: (§1) Maintenance of human embryonic stem cells (H9 line) was conducted as described in Example 1. Colonies of cells were maintained in an undifferentiated, pluripotent state with passage on average every four days. Passage was performed by exposing cell cultures to a solution of collagenase (1 mg/ml; Sigma-Aldrich) for 10 to 30 minutes at 37° C. followed by gentle scraping with a pipette tip to recover cell clusters. Clusters were allowed to sediment by gravity, followed by washing to remove residual collagenase. Cell clusters were split at a 1:3 ratio for routine maintenance culture or a 1:1 ratio for immediate assay. The human embryonic stem cell lines used were maintained at passage numbers less than passage 50 and routinely evaluated for normal karyotypic phenotype and absence of mycoplasma contamination.
(§2) Cell clusters used in the assay were evenly resuspended in normal culture medium and plated onto MATRIGEL-coated 96-well Packard VIEWPLATES (PerkinElmer) in volumes of […]. MEF conditioned medium supplemented with 8 ng/ml bFGF was used for initial plating and recovery. Daily feeding was conducted by aspirating spent culture medium from each well and replacing with an equal volume of fresh medium. Plates were maintained at 37° C., 5% CO2 in a humidified box throughout the duration of assay.
(§3) Screening was conducted using test compounds from a proprietary library of small molecules selected for their ability to inhibit GSK-3B enzyme activity. Compounds from this library were made available as 1 mM stocks, in a 96-well plate format in 50 mM HEPES, 30% DMSO. Screening compounds were tested in triplicate or duplicate sets. Primary screening assays were initiated by aspirating culture medium from each well followed by three washes in PBS to remove residual growth factors and serum. Test volumes of 80 to 100 μl per well were added back containing DMEM:F12 base medium (Invitrogen) supplemented with 0.5% FCS (HyClone) and 100 ng/ml activin A (R&D Biosystems) plus 10 μM test compound. Positive control wells contained the same base medium, substituting 10-20 ng/ml Wnt3a (R&D Biosystems) for the test compound. Negative control wells contained base medium with 0.5% FCS and activin A alone (AA only) or alternatively, 0.5% FCS without activin A or Wnt3a (no treatment). Wells were aspirated and fed again with identical solutions on day 2 of assay. On days 3 and 4, all assay wells were aspirated and converted to DMEM:F12 supplemented with 2% FCS and 100 ng/ml activin A (without test compound or Wnt3a); parallel negative control wells were maintained in DMEM:F12 base medium with 2% FCS and activin A (AA only) or alternatively, 2% FCS without activin A (no treatment).
(§4) At the end of culture, cells in 96-well plates were fixed with 4% paraformaldehyde at room temperature for 20 minutes, washed three times with PBS, and then permeabilized with 0.5% Triton X-100 for 20 minutes at room temperature. Alternatively, cells were fixed with ice cold 70% ethanol overnight at −20° C., washed three times with PBS, and then permeabilized with Triton X-100 for 5 minutes at 4° C. After fixing and permeabilizing, cells were washed again three times with PBS and then blocked with 4% chicken serum (Invitrogen) in PBS for 30 minutes at room temperature. Primary antibodies (goat anti-human Sox17 and goat anti-human HNF-3beta; R&D Systems) were diluted 1:100 in 4% chicken serum and added to cells for one hour at room temperature. Alexa Fluor 488 conjugated secondary antibody (chicken anti-goat IgG; Molecular Probes) was diluted 1:200 in PBS and added after washing the cells three times with PBS. To counterstain nuclei, 5 mM Draq5 (Alexis Biochemicals) was added for five minutes at room temperature. Cells were washed once with PBS and left in […] PBS for imaging.
(§5) Cells were imaged using an IN Cell Analyzer 1000 (GE Healthcare) utilizing the 51008bs dichroic for cells stained with Draq5 and Alexa Fluor 488. […]

[2] = tested on: cells expressing pluripotency markers derived from human embryonic stem cells; test: MTS viability (toxicity) assay of cells expressing pluripotency markers; parameters: Raw data (duplicate), first replicate / Average: unit not given here; conditions: for Raw data (duplicate), first replicate / Raw data (duplicate), second replicate: MTS viability assay raw reading; for Raw data (duplicate), first replicate: replicate 1; for Raw data (duplicate), second replicate: replicate 2; for Average: average of duplicate MTS raw readings; for % Control / viability at 10 µM: viability of cells expressing pluripotency markers, relative to control; for viability at 10 µM: Homo sapiens, Embryonic stem cell
Procedure: Derivation and maintenance of cells expressing pluripotency makers was conducted as has been described in Example 2. Cells were grown in DMEM:F12 supplemented with 2% FCS (Invitrogen), 100 ng/ml Activin A, 20 ng/ml Wnt-3a, and 50 ng/ml IGF (R&D Biosystems). Cells were seeded at a density of 10,000 cells/cm^2 on Falcon polystyrene flasks and grown in monolayer culture at 37° C., 5% CO2, low oxygen. After reaching 60-70% confluence, cells were passed by washing the monolayer with PBS and incubating with TrypLE (Invitrogen) for 3-5 minutes to allow detachment and single cell dispersal.
Screening was conducted using test compounds from a proprietary library of small molecules selected for their ability to inhibit GSK-3B enzyme activity. Compounds from this library were made available as 1 mM stocks, in a 96-well plate format in 50 mM HEPES, 30% DMSO. For assay, cells expressing pluripotency markers were washed, counted, and plated in normal culture medium at a seeding density of 20,000 cells per well in 96-well clear-bottom, dark-well plates (Costar). This seeding density was previously determined to yield optimal monolayer formation in overnight culture. On the following day, culture medium was removed, cell monolayers were rinsed three times with PBS, and test compounds were added to the wells in 80 μl aliquots, each diluted into assay medium at a final assay concentration of 10 μM. On day 2 of the assay, medium was removed from each well and replaced with a fresh aliquot of test compounds diluted into assay medium. Assay medium on days 1 and 2 of culture consisted of DMEM:F12 supplemented with 0.5% FCS and 100 ng/ml Activin A. On days 3 and 4 of culture, medium was removed from each well and replaced with DMEM:F12 supplemented with 2% FCS and 100 ng/ml Activin A (no test compound). On day 4 of assay, 15 μl of MTS (Promega) was added to each well and plates were incubated at 37° C. for 1.5 to 4 hours prior to reading optical density at 490 nm on a SpectraMax (Molecular Devices) instrument. Statistical measures consisting of mean, standard deviation, and coefficient of variation were calculated for each duplicate set. Toxicity was calculated for each test well relative to a positive control (wells treated with Activin A and Wnt3a on days 1 and 2 of culture).
A larger proportion of the compounds have minimal or no measurable toxicity in this cell-based assay.
A small panel of select compounds was repeat tested over a narrow dose titration range, again using cells expressing pluripotency markers in a similar assay as described above.

[3] = tested on: HNF-3beta expression in human embryonic stem cells (H9 line); test: High content screening assay: HNF-3beta protein expression (differentiation); conditions: for HNF-3b Expression Fold over Wnt 3a/AA control: total intensity normalised to Wnt 3a/AA control
Procedure: as §1, §2, §3, §4, §5

[4] = tested on: human embryonic stem cells (H9 line); test: High content screening assay: cell number (proliferative response); conditions: for fold induction at 10 µM: Homo sapiens, Embryonic stem cell, read-out: Proliferative Response, Fold over Wnt 3a/AA control
Procedure: as §1, §2, §3, §4, §5

[5] = 10 μM test compound with 100 ng/ml activin A on days 1-2, H9, total intensity by IN Cell Analyzer, strong and moderate hits
[6] = 10 μM test compound with 100 ng/ml activin A on days 1-2, H9, total cell number by IN Cell Analyzer, strong and moderate hits
[7] = cell number in the wells analysed for HNF-3b expression
[8] = cell number in the wells analysed for HNF-3b expression, normalised to Wnt 3a/AA control
[9] = cell number in the wells analysed for SOX-17 expression
[10] = cell number in the wells analysed for SOX-17 expression, normalised to Wnt 3a/AA control

Row | SMILES | SOX17 Expression, Fold over Wnt 3a/AA control [1] | SOX-17 Expression Total Intensity [1] | SOX-17 Expression Fold over Wnt 3a/AA control [1] [fold] | Raw data (duplicate), first replicate [2] | Raw data (duplicate), second replicate [2] | Average [2] | % Control [2] [%] | HNF3β Expression, Fold over Wnt 3a/AA control [3, 5] | HNF-3b Expression Total Intensity [3] | HNF-3b Expression Fold over Wnt 3a/AA control [3] [fold] | Proliferative Response Fold over Wnt 3a/AA control [4, 6] | Proliferative Response Total cells [4, 7] | Proliferative Response Fold over Wnt 3a/AA control [4, 8] [fold] | Proliferative Response Total cells [4, 9] | Proliferative Response Fold over Wnt 3a/AA control [4, 10] [fold] | fold induction at 10 µM [1] | viability at 10 µM [2] [%] | fold induction at 10 µM ([3]; Homo sapiens, Embryonic stem cell, 10 μM test compound with 100 ng/ml activin A on days 1-2, H9, total intensity by IN Cell Analyzer, strong and moderate hits, read-out: HNF3β Expression, Fold over Wnt 3a/AA control) | fold induction at 10 µM [4, 6]
1 | O=C1NC(=O)C2=C1c1cn(c3ncccc13)CCOCCOCCOCCOCCn1cc2c2cccnc21 [Compound 6, 10,11,13,14,16,17,19,20,22,23-Decahydro-1H-9,4:24,29-di(metheno)dipyrido[2,3-n:3′,2′-t]pyrrolo[3,4-q][1,4,7,10,13,22]tetraoxadiazacyclotetracosine-1,3(2H)-dione] | 0.9706 Fold over Wnt 3a/AA control | 363855000 | 0.9706 | 0.706 | 0.672 | 0.689 | 83.9 | 1.3832 Fold over Wnt 3a/AA control | 635655000 | 1.3832 | 1.9264 Fold over Wnt 3a/AA control | 9728 | 1.926 | 9964.5 | 1.25 |  |  |  | 
2 | CN(C)CCCn1nc(C2=C(c3cn(-c4cccc5ccccc45)c4ccccc34)C(=O)NC2=O)c2ccccc21 [Compound 8] |  | 319930000 |  | 0.165 | 0.154 | 0.159 |  |  | 341360000 |  |  | 5096 |  | 5706.5 |  | 0.853 | 5.2 | 0.743 | 1.01
3 | COCCN1CCOCCn2cc(c3ccccc32)C2=C(C(=O)NC2=O)c2nn(c3ccccc23)CCOCC1 [Compound 10, 11-(2-Methoxyethyl)-6,7,10,11,12,13,15,16-octahydro-9H,23H-5,26-(azeno)-17,22-(metheno)dibenzo[k,q]pyrrolo[3,4-n][1,7,4,10,19]dioxatriazacyclohenicosine-23,25(24H)-dione] | 0.6864 Fold over Wnt 3a/AA control | 257295000 | 0.6864 | 0.601 | 0.620 | 0.611 | 72.2 | 0.6803 Fold over Wnt 3a/AA control | 312605000 | 0.6803 | 0.8926 Fold over Wnt 3a/AA control | 4507 | 0.8926 | 4645.5 | 0.5829 |  |  |  | 
4 | O=C1CCCCn2cc(c3cccnc32)C2=C(C(=O)NC2=O)c2cn(c3ncccc23)CCCC1 [Compound 11, 8,9,11,12,13,14-Hexahydro-6H,21H-5,24:15,20-di(metheno)dipyrido[2,3-b:3′,2′-h]pyrrolo[3,4-e][1,10]diazacyclononadecine-10,21,23(7H,22H)-trione] | 0.5686 Fold over Wnt 3a/AA control | 213165000 | 0.5686 | 0.743 | 0.638 | 0.691 | 84.1 | 0.5866 Fold over Wnt 3a/AA control | 269570000 | 0.5866 | 0.6025 Fold over Wnt 3a/AA control | 3043 | 0.6025 | 2892.5 | 0.363 |  |  |  | 
5 | CN(C)CCCn1cc(C2=C(c3ccccc3Cl)C(=O)NC2=O)c2cccnc21 [Compound 12, 3-(2-Chlorophenyl)-4-{1-[3-(dimethylamino)propyl]-1H-pyrrolo[2,3-b]pyridin-3-yl}-1H-pyrrole-2,5-dione] |  | 203350000 |  | 0.148 | 0.152 | 0.150 |  |  | 209795000 |  |  | 2410 |  | 2460.5 |  |  | 4.8 |  | 
6 | O=C1NC(=O)C(c2nn(CCCO)c3ccccc23)=C1c1cn(-c2ccc3ccccc3c2)c2ccccc12 [Compound 13] |  | 306085000 |  | 0.767 | 0.789 | 0.778 |  | 0.7104 Fold over Wnt 3a/AA control | 326475000 |  |  | 4556 |  | 4783 |  | 0.817 | 92.6 |  | 0.902
